Data set [1] can be described thus: Maximum Tolerated Dose toxicity study in mice. The settings on record: both, CD-1, mouse, in vivo, 14 days. The protocol:
The toxicity study in mice (Maximum Tolerated Dose) was done with CD-1 strain of mice in groups of 50% male-50% female animals (10 animals per group) at the dosing levels of 2.5, 5, 10, and 20 mg/kg (intarperitoneal) and 5 and 10 mg/kg (peroral). Animals were dosed for 14 days, bid (the actual daily doses were twice those shown) and observed without dosing for additional 14 days. […].

A short description of data set [2]: Acute IV toxicity in mice. In kind it is in vivo. The settings on record: 1 mg/kg intravenously, 24 hour observation.
Data set [3] relates to non-ALKdependent cell lines. Put plainly: Cell proliferation inhibition, non-ALK-dependent control cell lines. In kind it is cell-based. The settings on record: 12 unrelated cell lines; read-out: Lowest IC50s for non-ALK-dependent cell lines. The source says:
Cell proliferation inhibition assays were run for compound (II) with the five target NPM-ALK-dependent ALCL cell lines (Karpas 299, SuDHL-1, JB6, SupM2, UConn) and 12 unrelated cell lines (HEK293, CHO-K1, MCF7, HepG2, H292, H520, H1581, H596, H522, CHA-GO-K1, UMC-11, SK-MES1). […] The pronounced target cell-killing effect is also observed (molecular mechanisms to be determined).

Data set [4] is described as follows: Metabolic Stability (liver micros., human), Cerep Study 13170. In kind it is in vitro ADME. The settings on record: 1.0E−06 M, human liver microsomes. In general terms: Liver microsomes are vesicles of endoplasmic reticulum, rich in cytochrome P450 enzymes.
The target of a further data set is T1, TrkC (Homo sapiens, UniProt Q16288).
T1 construct: purchased Invitrogen (SelectScreen service)
T1 sequence (Q16288 32-839): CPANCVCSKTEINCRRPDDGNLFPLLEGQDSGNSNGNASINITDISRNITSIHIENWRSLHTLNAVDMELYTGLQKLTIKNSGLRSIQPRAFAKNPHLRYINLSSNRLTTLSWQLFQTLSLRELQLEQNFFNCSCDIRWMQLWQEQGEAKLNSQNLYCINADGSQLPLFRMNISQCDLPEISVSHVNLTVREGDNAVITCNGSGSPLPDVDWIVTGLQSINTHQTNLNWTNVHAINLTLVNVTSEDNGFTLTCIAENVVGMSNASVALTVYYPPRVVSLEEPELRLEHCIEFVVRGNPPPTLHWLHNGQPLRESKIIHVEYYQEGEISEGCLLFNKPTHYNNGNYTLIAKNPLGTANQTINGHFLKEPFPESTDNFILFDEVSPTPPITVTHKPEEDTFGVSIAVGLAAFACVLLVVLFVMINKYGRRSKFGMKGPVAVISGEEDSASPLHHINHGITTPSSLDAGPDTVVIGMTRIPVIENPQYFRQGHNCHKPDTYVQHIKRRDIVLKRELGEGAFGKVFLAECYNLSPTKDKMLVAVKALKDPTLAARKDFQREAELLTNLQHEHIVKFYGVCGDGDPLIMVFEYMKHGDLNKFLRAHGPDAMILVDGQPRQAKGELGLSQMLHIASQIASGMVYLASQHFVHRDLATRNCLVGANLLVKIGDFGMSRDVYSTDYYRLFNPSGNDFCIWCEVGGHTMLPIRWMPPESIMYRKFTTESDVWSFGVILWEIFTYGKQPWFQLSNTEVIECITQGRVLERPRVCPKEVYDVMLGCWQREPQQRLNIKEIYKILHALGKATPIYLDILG
Put plainly: Invitrogen SelectScreen Z-lyte kinase assay, TrkC. In kind it is biochemical. The settings on record: 100 μM ATP. The protocol:
(§1) To evaluate selectivity versus other kinases, inhibition of various kinases by compound (II) was determined. In particular, IC50s for TrkA, Jak2, Axl tyrosine kinases were determined using ADP Hunter (DiscoverX) kinase assay. Single point profiling of compound (II) on 50 human tyrosine kinases and 10 Ser-Thr kinases was done at Upstate/Millipore by radiometric assay. […] The subset of the 520 kinases in the human kinome that were tested was strategically selected to cover most of the therapeutically relevant tyrosine kinases and to represent major branches of serine-threonine kinases.
(§2) Compound (II) was a multitargeted tyrosine kinase (TK) inhibitor with a distinct pattern of inhibition focused on ALK, Trk family, Ros and Ret kinases. Invitrogen SelectScreen (Z-lyte assay) produced the following IC5O values for this set of kinases: ALK 9.75 nM, TrkA 1.5 nM, TrkB 1.4 nM, TrkC 1.8 nM, Ret 7.1 nM, Ros 1.8 nM (all measured at 100 μM ATP). […] About 70% of the 50 TKs tested have selectivity in excess of 50-fold for ALK and higher for Ret, Ros and Trk family members.

The target in another data set is T2, CYP1A2 (Homo sapiens, UniProt P05177).
T2 construct: purchased Cerep (contract assay, ADMET Study 13170)
T2 sequence (P05177 1-516): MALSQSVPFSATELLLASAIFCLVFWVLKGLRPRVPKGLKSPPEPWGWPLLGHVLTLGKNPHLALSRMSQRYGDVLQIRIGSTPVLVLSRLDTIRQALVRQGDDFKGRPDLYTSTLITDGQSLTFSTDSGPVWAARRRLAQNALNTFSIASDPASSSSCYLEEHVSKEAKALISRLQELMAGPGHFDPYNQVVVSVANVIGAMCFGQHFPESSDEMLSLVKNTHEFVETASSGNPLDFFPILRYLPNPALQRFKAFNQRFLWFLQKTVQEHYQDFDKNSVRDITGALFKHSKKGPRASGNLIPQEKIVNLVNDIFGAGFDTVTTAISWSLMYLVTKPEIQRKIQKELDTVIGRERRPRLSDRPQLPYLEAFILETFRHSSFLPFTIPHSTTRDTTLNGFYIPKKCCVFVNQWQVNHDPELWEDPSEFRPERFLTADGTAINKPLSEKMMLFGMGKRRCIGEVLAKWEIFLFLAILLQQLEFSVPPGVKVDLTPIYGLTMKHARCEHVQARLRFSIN
Put plainly: CYP1A2 Inhibition (recombinant, CEC substrate). The settings on record: for CYP1A2 % Inhibition of Control Values, 1st/2nd/3rd: listed as CRL241, mean. In kind it is in vitro ADME.

Another data set addresses T3, Fer (Homo sapiens, UniProt P16591).
T3 construct: purchased Invitrogen
Put plainly: Invitrogen SelectScreen Z-lyte kinase assay, Fer. In kind it is biochemical.

A short description of data set [5]: Pharmacokinetics study in CD-1 mice (IV, PO). The settings on record: IV 1 mg/kg, time point 0.35, individual animals A-D. In kind it is in vivo.
A short description of data set [6]: Solubility in acidic aqueous formulation vehicle. In kind it is physicochemical. The settings on record: pH 4-6. The protocol: The solubility of compound (II) in aqueous buffers has been tested at Cerep, as part of ADMET Study 13170. […] Such aqueous solubility was at least as good as or higher than a typical one for a small molecule, ATP-competitive kinase inhibitor. The compound has much higher aqueous solubility at lower pH. 20-50 mM acetic or tartaric acid (pH 4-6) was used to dissolve the compound at concentrations up to 5 mg/ml (or ˜10 mM); this type of formulation was used for our animal toxicity and PK studies. Compound (II) was also well soluble in such organic solvents as DMSO or N-methyl pyrrolidone and can be subsequently solubilized in aqueous formulations containing 2% Tween 80 or 5-20% Solutol HS15.

The next data set deals with ALK (Homo sapiens, UniProt Q9UM73). Put plainly: Invitrogen SelectScreen Z-lyte kinase assay, ALK. In kind it is biochemical. More on the design: purchased Invitrogen (SelectScreen service). The settings on record: 100 μM ATP. As to the method: as §1, §2
Chain of ALK (Q9UM73 19-1620): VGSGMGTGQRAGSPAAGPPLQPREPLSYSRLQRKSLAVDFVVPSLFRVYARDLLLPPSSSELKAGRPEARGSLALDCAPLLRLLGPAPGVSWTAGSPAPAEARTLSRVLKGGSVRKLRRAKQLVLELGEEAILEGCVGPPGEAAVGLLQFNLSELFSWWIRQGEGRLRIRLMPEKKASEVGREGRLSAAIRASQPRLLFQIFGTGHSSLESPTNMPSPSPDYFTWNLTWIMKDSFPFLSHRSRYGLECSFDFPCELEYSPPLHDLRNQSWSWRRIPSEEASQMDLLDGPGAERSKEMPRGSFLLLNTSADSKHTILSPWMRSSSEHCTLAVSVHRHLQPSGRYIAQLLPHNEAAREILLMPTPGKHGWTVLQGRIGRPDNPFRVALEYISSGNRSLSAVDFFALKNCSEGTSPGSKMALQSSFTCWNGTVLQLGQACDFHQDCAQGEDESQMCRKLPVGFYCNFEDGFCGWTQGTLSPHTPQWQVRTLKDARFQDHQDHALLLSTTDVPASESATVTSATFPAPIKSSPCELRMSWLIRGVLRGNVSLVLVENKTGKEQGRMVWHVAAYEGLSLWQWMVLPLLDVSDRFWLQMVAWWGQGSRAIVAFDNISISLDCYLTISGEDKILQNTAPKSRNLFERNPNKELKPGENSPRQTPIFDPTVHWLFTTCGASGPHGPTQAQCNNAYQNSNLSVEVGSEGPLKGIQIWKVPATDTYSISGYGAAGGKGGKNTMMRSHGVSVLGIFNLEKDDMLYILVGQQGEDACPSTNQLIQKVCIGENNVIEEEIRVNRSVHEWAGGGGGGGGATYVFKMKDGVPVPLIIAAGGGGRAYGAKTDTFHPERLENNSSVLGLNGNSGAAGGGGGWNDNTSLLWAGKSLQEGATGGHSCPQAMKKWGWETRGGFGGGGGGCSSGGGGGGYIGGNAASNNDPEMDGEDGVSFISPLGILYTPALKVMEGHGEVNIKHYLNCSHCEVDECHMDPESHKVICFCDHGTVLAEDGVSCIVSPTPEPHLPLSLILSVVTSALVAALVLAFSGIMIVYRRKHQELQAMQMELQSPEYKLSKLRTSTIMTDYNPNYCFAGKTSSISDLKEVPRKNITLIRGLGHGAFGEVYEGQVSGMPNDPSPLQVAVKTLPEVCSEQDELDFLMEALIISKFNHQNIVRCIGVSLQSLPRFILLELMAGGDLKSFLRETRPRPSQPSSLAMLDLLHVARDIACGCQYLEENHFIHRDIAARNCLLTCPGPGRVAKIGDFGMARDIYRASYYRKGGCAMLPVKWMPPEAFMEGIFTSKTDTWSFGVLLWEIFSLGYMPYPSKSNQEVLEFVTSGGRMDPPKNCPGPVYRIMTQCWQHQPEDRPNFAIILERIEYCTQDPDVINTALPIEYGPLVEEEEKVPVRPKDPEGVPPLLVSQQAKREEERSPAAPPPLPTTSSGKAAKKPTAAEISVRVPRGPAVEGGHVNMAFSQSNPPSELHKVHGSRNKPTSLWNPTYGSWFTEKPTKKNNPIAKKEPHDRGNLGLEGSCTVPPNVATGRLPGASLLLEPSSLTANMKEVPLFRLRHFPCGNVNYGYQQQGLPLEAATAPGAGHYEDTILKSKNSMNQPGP

Each structure is given as a SMILES string. “And” between values parts separate entries of the source, which are not always exact repeats. Equal values may be shown once.

T3 sequence (P16591 whole entry): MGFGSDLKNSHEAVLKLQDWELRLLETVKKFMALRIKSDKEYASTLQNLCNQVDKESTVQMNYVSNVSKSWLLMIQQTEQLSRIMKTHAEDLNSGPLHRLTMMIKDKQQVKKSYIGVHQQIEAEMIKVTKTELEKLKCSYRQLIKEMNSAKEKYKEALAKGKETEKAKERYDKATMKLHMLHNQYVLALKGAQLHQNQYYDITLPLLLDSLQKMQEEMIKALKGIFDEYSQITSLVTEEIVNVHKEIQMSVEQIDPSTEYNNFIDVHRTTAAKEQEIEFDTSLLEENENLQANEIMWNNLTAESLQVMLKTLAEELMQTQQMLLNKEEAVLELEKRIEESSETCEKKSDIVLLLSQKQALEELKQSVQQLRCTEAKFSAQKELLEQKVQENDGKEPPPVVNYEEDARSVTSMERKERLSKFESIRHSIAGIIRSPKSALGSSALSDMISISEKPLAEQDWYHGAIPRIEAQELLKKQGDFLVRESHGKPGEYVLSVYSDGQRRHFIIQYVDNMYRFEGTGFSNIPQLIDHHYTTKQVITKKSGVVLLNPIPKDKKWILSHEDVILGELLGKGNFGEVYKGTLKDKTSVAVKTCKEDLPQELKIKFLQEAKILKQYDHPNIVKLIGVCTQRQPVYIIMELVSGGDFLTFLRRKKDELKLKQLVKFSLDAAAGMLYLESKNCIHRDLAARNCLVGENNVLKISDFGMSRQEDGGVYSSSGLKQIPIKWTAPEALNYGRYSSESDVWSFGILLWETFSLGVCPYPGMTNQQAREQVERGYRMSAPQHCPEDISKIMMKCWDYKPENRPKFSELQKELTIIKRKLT

In the case of `Cc1ccc(F)cc1C[C@H](C)Nc1cc[nH]c(=O)c1-c1nc2cc3c(cc2[nH]1)C(=O)N(CCN1CCCC1)C3` [compound (II)], the “Adverse effects at 5 and 10 mg/kg oral” value in data set [1] is on record as “No adverse effects were observed”. The “Tolerability at 2.5 or 5 mg/kg IP” value in [1] was “safe”. Besides, the “Tolerability at 10 and 20 mg/kg IP” value in data set [1] is listed as “exceeded MTD”. Also, the “Acute IV toxicity” value in data set [2] was “no signs of toxicity were observed”. The IC50 in data set [3] is roughly 2500 nM; against TrkC, 1.8 nM; on Fer, 42 nM; on ALK, 9.75 nM. Besides, the “Mean Parent Remaining” value in [4] (1 hr incubation) amounted to 73%. Also, the Parent Remaining Mean in [4] (Table 8B) amounted to 73%. For the same compound, in data set [4] (Table 8B, listed as CRL241), the Parent Remaining 1st/2nd was 70.3% and 76.4%. For the same compound, the “CYP1A2 inhibition” value at CYP1A2 (1 μM and 5 μM) is “No inhibition was detected”. Also, the “CYP1A2 % Inhibition of Control Values, 1st/2nd/3rd” value was determined as 106.6% at CYP1A2 (1.0E−06 M, Table 5B individual results) and 90.3% on CYP1A2 (5.0E−06 M, Table 5B individual results). The activity at 1 µM at CYP1A2 (recombinant CYP1A2, probe CEC, 1.0E−06 M, Table 5B individual results, read-out: CYP1A2 % Inhibition of Control Values, 1st/2nd/3rd) was 110%. Also, the activity at 5 µM on CYP1A2 (recombinant CYP1A2, probe CEC, 5.0E−06 M, Table 5B individual results, read-out: CYP1A2 % Inhibition of Control Values, 1st/2nd/3rd) was 92.1%. The inhibition at 1 µM at CYP1A2 (recombinant CYP1A2, probe CEC, 1.0E−06 M, read-out: CYP1A2 % Inhibition of Control Values) is -7%. Further, the inhibition at 5 µM on CYP1A2 (recombinant CYP1A2, probe CEC, 5.0E−06 M, read-out: CYP1A2 % Inhibition of Control Values) was determined as 10%. Besides, the “Plasma Concentration” value in [5] was 100.41 ng/mL and 89.28 ng/mL and 41.61 ng/mL and 64.53 ng/mL. Further, the “Concentration dissolved in 20-50 mM acetic or tartaric acid” value in data set [6] is “up to 5 mg/ml”.

The inhibition is the relative decrease from the control value, in per cent.

The values above are taken from patent publication US9249147B2, “Tyrosine kinase inhibitors” (CHEMBRIDGE CORPORATION, priority 2008, dated 2016).
